The values below come from ChEMBL document CHEMBL1133776, “A rapid computational method for lead evolution: description and application to alpha(1)-adrenergic antagonists” (J Med Chem, 2000).

This assay deals with T1, Adrenergic receptor alpha-1 (Rattus norvegicus, UniProt P15823+P23944+P43140).
T1 sequence (P15823 whole entry): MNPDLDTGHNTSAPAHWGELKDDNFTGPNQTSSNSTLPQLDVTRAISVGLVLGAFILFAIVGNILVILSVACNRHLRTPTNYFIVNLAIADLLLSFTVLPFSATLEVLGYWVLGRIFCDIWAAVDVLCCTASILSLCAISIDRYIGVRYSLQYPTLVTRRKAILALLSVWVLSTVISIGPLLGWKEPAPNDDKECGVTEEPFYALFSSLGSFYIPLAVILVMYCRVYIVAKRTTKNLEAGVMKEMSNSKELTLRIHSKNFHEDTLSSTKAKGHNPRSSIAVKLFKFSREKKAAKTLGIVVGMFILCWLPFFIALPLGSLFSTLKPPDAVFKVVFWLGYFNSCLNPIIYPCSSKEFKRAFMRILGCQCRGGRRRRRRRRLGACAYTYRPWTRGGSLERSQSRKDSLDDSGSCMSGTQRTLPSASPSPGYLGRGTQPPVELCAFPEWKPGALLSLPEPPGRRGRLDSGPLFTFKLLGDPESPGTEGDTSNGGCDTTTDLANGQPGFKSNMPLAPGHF
T1 sequence (P23944 whole entry): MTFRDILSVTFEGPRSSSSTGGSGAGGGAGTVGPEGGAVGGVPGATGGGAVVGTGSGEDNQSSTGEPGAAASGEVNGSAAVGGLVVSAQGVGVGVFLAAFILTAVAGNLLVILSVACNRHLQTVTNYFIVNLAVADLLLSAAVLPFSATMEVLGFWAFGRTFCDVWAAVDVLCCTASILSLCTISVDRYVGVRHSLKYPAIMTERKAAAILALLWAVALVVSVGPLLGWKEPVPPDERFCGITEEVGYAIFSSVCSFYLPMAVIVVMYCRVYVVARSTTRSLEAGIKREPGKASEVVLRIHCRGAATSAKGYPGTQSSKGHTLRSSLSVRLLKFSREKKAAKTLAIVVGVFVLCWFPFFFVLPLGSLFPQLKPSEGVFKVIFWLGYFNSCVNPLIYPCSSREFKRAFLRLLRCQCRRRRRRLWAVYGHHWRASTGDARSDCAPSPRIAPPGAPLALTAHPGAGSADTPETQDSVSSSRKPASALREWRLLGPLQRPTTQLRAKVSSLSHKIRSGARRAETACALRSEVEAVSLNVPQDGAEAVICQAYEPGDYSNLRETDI
T1 sequence (P43140 whole entry): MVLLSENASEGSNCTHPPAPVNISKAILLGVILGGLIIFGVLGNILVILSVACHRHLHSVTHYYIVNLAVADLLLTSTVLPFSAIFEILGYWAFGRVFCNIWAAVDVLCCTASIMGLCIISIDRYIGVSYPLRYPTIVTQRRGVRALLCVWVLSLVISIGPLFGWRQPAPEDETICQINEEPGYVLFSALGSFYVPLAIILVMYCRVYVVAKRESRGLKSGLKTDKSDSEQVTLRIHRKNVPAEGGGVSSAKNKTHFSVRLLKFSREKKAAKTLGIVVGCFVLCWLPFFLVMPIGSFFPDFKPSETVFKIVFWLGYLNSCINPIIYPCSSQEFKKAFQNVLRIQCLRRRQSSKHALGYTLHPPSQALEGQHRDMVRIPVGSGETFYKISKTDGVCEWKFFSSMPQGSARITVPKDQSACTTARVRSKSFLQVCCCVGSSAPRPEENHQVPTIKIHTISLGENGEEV
In words: Evaluated for binding affinity against alpha-1 adrenergic receptor. The format is protein assay.

For the compound `COc1cccc(OC)c1OCCNCC1COc2ccccc2O1` (stereo unspecified), the Ki (commonly a measure of affinity in units of concentration, obtained from inhibition or displacement) turned out to be 0.54 nM.
